Assay results from patent US12479847B2 (DANA-FARBER CANCER INSTITUTE, INC., priority 2019, dated 2025).

How the values were obtained:
Assay in all cases: KINOMEscan (ScanMAX) kinase profiling
Format in all cases: binding
panel of 468 kinases [1] = target: T1, panel of 468 kinases (Homo sapiens, UniProt P07332); conditions: FES; 1 μM; read-out: % control
T1 construct: purchased KINOMEscan (ScanMAX) service

panel of 468 kinases [2] = target: T2, panel of 468 kinases (Homo sapiens, UniProt Q15139); conditions: PRKD1; 1 μM; read-out: % control
T2 construct: purchased KINOMEscan (ScanMAX) service
T2 sequence (Q15139 1-912): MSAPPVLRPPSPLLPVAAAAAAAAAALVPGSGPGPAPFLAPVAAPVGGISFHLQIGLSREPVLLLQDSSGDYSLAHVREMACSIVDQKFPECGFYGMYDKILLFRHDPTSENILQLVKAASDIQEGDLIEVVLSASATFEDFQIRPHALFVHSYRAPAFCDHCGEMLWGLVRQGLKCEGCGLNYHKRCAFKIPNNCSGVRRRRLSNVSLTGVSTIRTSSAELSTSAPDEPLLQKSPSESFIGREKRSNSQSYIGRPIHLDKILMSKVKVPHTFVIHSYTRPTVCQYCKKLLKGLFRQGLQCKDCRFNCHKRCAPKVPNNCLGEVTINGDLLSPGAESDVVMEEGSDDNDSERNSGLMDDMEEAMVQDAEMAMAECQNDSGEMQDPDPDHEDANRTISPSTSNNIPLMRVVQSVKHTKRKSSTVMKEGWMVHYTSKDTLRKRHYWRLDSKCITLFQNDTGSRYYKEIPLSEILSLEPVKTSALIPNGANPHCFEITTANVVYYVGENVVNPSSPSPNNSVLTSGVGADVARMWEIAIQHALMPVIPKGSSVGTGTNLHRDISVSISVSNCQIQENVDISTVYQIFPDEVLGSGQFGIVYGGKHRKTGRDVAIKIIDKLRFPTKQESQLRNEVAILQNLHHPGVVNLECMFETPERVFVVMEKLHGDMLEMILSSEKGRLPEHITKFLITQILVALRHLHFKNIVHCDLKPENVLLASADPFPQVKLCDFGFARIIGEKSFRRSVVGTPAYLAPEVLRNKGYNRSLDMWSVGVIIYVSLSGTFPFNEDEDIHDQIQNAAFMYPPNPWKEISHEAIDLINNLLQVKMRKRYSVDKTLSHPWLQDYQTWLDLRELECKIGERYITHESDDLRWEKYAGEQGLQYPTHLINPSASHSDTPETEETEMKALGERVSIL

panel of 468 kinases [3] = target: T3, panel of 468 kinases (Homo sapiens, UniProt P06213); conditions: INSR; 1 μM; read-out: % control
T3 construct: purchased KINOMEscan (ScanMAX) service
T3 sequence (P06213 28-1382): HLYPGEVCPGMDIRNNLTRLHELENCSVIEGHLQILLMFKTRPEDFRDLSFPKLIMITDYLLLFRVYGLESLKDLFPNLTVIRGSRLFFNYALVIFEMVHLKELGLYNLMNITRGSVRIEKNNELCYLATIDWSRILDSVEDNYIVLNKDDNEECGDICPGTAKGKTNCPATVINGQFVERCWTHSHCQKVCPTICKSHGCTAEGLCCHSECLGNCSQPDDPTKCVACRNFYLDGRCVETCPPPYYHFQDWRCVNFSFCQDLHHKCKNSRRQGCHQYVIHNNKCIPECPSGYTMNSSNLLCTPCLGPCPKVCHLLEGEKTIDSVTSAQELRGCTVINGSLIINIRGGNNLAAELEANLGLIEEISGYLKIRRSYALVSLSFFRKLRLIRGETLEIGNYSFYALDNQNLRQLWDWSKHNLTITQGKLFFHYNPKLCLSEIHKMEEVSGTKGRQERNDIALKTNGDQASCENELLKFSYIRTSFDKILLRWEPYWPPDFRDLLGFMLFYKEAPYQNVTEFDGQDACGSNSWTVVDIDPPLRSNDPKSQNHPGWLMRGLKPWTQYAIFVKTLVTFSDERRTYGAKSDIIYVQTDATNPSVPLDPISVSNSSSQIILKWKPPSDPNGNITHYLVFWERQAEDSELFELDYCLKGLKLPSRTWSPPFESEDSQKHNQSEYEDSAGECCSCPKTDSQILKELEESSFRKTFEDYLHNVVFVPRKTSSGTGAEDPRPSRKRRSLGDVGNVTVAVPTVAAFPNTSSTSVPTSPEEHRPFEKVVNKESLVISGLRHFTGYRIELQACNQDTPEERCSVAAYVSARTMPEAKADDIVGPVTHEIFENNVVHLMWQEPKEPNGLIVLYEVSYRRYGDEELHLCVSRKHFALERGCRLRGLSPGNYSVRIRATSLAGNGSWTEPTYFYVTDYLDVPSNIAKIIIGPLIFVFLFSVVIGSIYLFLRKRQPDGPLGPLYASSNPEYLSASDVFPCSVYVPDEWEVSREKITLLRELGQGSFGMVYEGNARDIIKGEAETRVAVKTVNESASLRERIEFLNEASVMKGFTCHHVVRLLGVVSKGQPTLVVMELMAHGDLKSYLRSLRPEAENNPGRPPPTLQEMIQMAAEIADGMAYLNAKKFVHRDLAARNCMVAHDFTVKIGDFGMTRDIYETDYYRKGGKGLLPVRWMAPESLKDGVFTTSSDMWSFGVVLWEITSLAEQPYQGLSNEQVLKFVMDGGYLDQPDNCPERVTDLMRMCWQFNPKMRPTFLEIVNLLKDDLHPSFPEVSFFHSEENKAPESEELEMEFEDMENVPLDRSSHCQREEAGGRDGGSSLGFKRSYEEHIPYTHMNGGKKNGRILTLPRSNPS

panel of 468 kinases [4] = target: T4, panel of 468 kinases (Homo sapiens, UniProt Q9BUB5); conditions: MKNK1; 1 μM; read-out: % control
T4 construct: purchased KINOMEscan (ScanMAX) service
T4 sequence (Q9BUB5 whole entry): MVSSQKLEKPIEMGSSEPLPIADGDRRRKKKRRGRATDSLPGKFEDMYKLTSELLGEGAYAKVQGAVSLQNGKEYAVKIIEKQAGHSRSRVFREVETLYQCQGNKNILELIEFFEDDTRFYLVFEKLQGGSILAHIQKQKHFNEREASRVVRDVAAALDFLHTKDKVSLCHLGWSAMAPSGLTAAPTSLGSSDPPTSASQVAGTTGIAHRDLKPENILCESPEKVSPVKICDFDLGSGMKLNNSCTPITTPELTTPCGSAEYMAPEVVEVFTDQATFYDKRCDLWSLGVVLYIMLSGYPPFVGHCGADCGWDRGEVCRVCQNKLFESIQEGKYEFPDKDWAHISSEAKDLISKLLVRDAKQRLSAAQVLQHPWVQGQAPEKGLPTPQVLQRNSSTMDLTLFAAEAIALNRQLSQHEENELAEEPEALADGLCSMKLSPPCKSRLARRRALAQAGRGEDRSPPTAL

panel of 468 kinases [5] = target: T5, panel of 468 kinases (Homo sapiens, UniProt O60674); conditions: JAK2(JH1domain-catalytic); 1 μM; read-out: % control
T5 construct: purchased KINOMEscan (ScanMAX) service
T5 sequence (O60674 whole entry): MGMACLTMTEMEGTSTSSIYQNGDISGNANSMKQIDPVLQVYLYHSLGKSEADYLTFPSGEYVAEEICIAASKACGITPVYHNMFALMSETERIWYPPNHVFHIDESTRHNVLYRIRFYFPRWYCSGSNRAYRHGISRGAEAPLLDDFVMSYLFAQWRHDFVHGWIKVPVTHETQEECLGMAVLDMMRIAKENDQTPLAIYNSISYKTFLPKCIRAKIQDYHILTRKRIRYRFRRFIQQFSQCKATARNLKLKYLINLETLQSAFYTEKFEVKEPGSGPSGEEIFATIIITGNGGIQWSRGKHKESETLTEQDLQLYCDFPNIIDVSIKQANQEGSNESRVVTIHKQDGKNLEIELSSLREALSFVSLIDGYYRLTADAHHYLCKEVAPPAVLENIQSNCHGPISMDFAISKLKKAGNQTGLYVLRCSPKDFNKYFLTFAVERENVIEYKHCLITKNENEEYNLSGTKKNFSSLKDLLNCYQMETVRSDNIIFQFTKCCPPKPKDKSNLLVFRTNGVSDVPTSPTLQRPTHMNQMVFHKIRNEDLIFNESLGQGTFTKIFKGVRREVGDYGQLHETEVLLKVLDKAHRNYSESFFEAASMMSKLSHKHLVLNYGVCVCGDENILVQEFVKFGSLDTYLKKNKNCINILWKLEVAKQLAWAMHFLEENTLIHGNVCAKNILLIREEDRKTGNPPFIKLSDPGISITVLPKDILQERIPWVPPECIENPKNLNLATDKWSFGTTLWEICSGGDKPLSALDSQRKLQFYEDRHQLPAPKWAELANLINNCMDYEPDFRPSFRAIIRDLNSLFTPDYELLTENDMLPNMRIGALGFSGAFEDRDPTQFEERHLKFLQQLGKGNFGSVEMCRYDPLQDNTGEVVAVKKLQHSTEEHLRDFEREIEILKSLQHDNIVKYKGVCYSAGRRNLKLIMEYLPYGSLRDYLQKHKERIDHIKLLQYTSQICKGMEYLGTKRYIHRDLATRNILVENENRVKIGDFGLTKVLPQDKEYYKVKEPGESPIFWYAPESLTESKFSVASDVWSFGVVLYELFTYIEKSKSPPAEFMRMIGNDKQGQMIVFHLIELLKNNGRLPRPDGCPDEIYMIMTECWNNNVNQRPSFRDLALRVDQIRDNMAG

panel of 468 kinases [6] = target: T6, panel of 468 kinases (Homo sapiens, UniProt Q8WU08); conditions: YANK1; 1 μM; read-out: % control
T6 construct: purchased KINOMEscan (ScanMAX) service
T6 sequence (Q8WU08 whole entry): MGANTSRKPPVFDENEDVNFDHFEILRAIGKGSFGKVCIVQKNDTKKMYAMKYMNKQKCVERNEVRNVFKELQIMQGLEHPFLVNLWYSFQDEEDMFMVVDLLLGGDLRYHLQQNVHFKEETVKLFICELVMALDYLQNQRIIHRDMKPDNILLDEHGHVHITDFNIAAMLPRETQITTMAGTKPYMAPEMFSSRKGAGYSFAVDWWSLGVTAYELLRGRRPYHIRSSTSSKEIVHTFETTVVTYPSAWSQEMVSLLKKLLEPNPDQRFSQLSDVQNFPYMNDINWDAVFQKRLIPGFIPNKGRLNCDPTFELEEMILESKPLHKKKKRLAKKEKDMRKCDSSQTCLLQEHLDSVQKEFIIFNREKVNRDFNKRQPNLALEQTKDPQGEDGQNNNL

panel of 468 kinases [7] = target: T7, panel of 468 kinases (Homo sapiens, UniProt Q9HAZ1); conditions: CLK4; 1 μM; read-out: % control
T7 construct: purchased KINOMEscan (ScanMAX) service
T7 sequence (Q9HAZ1 whole entry): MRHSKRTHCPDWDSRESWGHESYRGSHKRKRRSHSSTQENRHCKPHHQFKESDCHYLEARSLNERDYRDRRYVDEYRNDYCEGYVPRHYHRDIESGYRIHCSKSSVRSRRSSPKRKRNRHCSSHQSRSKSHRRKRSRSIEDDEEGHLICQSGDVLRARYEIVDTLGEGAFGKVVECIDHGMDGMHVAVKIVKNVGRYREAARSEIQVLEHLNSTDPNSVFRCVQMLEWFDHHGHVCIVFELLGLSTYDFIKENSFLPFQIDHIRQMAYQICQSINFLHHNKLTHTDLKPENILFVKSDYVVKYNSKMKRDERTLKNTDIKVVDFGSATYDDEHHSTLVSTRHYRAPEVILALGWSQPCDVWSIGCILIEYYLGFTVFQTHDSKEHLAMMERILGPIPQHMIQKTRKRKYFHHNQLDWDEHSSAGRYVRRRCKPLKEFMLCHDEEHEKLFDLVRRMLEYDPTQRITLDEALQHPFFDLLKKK

panel of 468 kinases [8] = target: T8, panel of 468 kinases (Homo sapiens, UniProt O43283); conditions: LZK; 1 μM; read-out: % control
T8 construct: purchased KINOMEscan (ScanMAX) service
T8 sequence (O43283 1-966): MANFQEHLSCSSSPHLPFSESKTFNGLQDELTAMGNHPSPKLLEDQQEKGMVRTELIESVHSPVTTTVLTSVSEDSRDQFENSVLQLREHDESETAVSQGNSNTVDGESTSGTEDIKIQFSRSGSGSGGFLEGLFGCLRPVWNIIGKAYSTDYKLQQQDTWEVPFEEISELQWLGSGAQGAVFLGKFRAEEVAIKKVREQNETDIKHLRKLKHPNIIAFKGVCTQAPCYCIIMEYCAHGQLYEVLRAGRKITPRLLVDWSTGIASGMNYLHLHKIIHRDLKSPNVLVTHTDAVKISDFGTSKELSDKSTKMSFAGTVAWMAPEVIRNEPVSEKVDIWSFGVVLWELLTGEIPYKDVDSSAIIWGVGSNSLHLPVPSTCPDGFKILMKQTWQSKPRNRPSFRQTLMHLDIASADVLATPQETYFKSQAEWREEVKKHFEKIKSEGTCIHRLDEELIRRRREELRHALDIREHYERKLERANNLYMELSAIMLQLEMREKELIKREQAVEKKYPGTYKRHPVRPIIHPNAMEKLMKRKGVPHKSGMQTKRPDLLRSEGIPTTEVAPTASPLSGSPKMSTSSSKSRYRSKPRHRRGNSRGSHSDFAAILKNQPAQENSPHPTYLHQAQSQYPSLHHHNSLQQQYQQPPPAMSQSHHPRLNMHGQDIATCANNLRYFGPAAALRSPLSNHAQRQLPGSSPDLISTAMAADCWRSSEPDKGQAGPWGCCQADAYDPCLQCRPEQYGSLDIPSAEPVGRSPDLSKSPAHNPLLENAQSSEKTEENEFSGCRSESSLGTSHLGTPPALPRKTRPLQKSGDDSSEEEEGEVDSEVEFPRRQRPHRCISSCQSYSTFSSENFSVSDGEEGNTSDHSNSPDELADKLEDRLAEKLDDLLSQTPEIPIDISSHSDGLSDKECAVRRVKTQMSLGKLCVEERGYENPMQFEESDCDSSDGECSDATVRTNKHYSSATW

T1 sequence (P07332 whole entry): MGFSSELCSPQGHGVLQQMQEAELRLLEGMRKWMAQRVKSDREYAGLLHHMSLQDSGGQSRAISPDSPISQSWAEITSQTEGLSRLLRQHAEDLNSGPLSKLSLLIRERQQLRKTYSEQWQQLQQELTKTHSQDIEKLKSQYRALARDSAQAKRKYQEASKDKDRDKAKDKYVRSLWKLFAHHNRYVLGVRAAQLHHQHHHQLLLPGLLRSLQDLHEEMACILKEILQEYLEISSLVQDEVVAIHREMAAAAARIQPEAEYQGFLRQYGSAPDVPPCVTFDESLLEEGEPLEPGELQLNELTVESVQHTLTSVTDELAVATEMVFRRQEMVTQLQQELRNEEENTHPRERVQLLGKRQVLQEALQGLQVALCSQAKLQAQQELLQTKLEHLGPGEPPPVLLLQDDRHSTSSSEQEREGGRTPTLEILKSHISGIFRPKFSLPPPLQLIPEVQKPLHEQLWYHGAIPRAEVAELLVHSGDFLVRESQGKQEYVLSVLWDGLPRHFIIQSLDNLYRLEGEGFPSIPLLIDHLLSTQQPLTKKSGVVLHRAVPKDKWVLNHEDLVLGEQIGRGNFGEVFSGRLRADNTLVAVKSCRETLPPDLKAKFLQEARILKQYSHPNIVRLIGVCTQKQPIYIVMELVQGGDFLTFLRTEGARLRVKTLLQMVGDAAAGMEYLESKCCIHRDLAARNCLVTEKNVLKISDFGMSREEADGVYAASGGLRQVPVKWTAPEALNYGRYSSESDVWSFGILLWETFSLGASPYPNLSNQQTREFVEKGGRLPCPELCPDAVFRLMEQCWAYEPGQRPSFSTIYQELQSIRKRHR

Structure (SMILES) | remaining binding at 1 µM (panel of 468 kinases [1]) | remaining binding at 1 µM (panel of 468 kinases [2]) | remaining binding at 1 µM (panel of 468 kinases [3]) | remaining binding at 1 µM (panel of 468 kinases [4]) | remaining binding at 1 µM (panel of 468 kinases [5]) | remaining binding at 1 µM (panel of 468 kinases [6]) | remaining binding at 1 µM (panel of 468 kinases [7]) | remaining binding at 1 µM (panel of 468 kinases [8])
CNc1nc(Nc2ccc(C(=O)N3CCC(N4CCOCC4)CC3)c3c2OCO3)nc2[nH]cc(Cl)c12 [Compound 75, (7-((5-chloro-4-(methylamino)-7H-pyrrolo[2,3-d]pyrimidin-2-yl)amino)benzo[d][1,3]dioxol-4-yl)(4-morpholinopiperidin-1-yl)methanone] | 81% | 7.3% | 24% | 100% | 24% | 100% | 0.7% | 57%
CNc1nc(Nc2ccc(S(=O)(=O)N3CCC(N4CCOCC4)CC3)cc2OC)nc2[nH]cc(Cl)c12 [Compound 12, 5-chloro-N2-(2-methoxy-4-((4-morpholinopiperidin-1-yl)sulfonyl)phenyl)-N4-methyl-7H-pyrrolo[2,3-d]pyrimidine-2,4-diamine] | 100% | 8.8% | 50% | 100% | 78% | 100% | 0.75% | 63%
CNc1nc(Nc2ccc(P3(=O)CCN(C4CCOCC4)CC3)cc2OC)nc2[nH]cc(Cl)c12 [Compound 77, 4-(4-((5-chloro-4-(methylamino)-7H-pyrrolo[2,3-d]pyrimidin-2-yl)amino)-3-methoxyphenyl)-1-(tetrahydro-2H-pyran-4-yl)-1,4-azaphosphinane 4-oxide] | 80% | 7% | 18% | 100% | 58% | 98% | 1.2% | 62%
